Among the data in patent US8815857B2 (Boehringer Ingelheim International GmbH, priority 2011, dated 2014) are EC50 and solubility values, retold here.

A word on the EC50: it is the concentration at which the effect is half-maximal. The solubility is how much of the substance goes into solution per volume. Read a high solubility as much dissolved substance.

Series [1] has as its target T1, Recombinant human soluble guanylate cyclase (sGC), alpha 1 / beta 1 subunits, heme-free (Homo sapiens, UniProt Q02108+Q02153).
T1 construct: histidine tag (C); made in house; host or cells: Sf9 insect cells (baculovirus coinfection)
T1 sequence (Q02108 1-690 partner): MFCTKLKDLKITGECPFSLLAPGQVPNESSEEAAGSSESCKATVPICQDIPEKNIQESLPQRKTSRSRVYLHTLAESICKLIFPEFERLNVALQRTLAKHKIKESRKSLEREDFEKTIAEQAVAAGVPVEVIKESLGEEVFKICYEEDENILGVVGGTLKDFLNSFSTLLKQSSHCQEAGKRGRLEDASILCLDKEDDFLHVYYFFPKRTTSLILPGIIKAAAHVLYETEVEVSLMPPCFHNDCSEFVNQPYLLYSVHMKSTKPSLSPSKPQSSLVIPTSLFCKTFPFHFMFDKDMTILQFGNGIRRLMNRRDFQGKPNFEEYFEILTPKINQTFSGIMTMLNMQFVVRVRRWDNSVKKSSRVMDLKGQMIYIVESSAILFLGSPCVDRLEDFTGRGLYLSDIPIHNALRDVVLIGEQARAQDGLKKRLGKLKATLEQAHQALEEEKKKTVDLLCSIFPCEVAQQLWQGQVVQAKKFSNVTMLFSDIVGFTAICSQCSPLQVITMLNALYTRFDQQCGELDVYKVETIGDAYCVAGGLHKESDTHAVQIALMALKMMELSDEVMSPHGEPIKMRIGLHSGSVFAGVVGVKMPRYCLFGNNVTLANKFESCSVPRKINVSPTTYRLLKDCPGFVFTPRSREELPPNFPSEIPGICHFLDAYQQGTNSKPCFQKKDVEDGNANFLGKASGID
T1 sequence (Q02153 1-619): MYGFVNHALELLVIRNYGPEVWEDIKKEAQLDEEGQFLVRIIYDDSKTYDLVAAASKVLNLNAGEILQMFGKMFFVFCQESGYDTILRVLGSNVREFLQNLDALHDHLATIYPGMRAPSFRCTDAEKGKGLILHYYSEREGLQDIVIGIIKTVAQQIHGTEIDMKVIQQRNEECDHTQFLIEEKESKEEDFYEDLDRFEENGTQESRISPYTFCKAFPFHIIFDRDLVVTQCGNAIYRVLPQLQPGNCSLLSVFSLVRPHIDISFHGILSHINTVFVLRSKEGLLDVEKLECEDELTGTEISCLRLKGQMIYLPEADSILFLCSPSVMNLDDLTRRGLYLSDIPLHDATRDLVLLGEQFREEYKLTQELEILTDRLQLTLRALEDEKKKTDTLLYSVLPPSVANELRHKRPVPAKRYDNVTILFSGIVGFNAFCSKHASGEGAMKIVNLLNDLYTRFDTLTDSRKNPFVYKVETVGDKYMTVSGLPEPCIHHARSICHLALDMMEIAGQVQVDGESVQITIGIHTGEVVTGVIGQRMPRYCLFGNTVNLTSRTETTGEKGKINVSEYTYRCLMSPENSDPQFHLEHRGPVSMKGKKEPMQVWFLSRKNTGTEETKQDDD
Nature of the series: Molecular assay: cGMP formation by heme-free recombinant sGC (CisBio cGMP detection kit). Format: biochemical. Conditions: 300 pM heme-free sGC, 37° C., 60 min, cGMP readout; read-out: EC50 nM, Activity of Compounds in Molecular Assay. Put shortly:
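cGMP generated over 60 min at 37° C (pH 6.8 MOPS buffer, 50 nM GTP, 1.25 mM IBMX, 1% DMSO) by 300 pM heme-free sGC, expressed in Sf9 and heme-stripped with 0.5% Tween 20. HTRF ratios converted to nM cGMP; EC50 fitted from log concentration.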

A short description of a further series: physchem. Conditions: kinetic from dmso stock.
The target in series [2] is T2, human soluble guanylate cyclase alpha 1 and beta 1 subunits (sGC) stably expressed in Chinese hamster ovary cells (Homo sapiens, UniProt Q02108+Q02153).
T2 construct: expressed in transfected cells; host or cells: Chinese hamster ovary cells, stably transfected
T2 sequence (Q02108 1-690 partner): T1 sequence (Q02108 1-690 partner)
T2 sequence (Q02153 1-619): T1 sequence (Q02153 1-619)
Nature of the series: sGC cellular activator assay: cGMP in CHO cells expressing human sGC, preincubated with ODQ. Format: cell-based. Conditions: 40 microM ODQ preincubation, 30 min at room temperature, presence or absence of 50% human serum not given, read-out: EC50 nM, Activity of Compounds in Cellular Assay. The method in brief: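 EC50 values derive from HTRF cGMP measurement after test compounds act for thirty minutes at room temperature, with or without 50% human serum. Before dosing, the sGC-transfected CHO cells spend one hour with the inhibitor ODQ (40 microM) in IBMX- and 0.1% BSA-containing buffer.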

A short description of series [3]: Assessment of solubility: HT solubility in pION buffer, UV spectrophotometry. Conditions: pION system solution buffer, kinetic from dmso stock, 16-19 h incubation, 1.0% DMSO.
[4] abbreviates: pH 4.5, pH 4.5, aqueous buffer, Solubility (pH 4.5), pH 4.5 buffer.
Where [5] appears, read: pH 7.4, pH 7.4, aqueous buffer, Solubility (pH 7.4), pH 7.4 buffer.

≈ marks a conversion by molar mass, not a printed value.

For the compound `Cc1ccc(OCc2ccc(CN3CCN(C(=O)C4CC4)CC3)cc2C)c(-c2csc(N3CCC(C(=O)O)CC3)n2)c1` [Compound 198], the EC50 in series [1] was found to be 20 nM. Further, the solubility in “physchem” (pH 4.5, aqueous buffer, Solubility (pH 4.5)) was 0.037 mg/mL (≈ 62.8 µM); in the series “physchem” (pH 7.4, aqueous buffer, Solubility (pH 7.4)), over 0.058 mg/mL.

As for `Cc1cc(C(=O)N2CCCCC2)ccc1COc1ccc(Cl)cc1-c1csc(N2CCC(C(=O)O)CC2)n1` [Compound 271], the EC50 came out at 45 nM in series [1] and 19 nM in series [2]. For the same compound, the results for the solubility in series [3] (setting [4]) and in series [3] (setting [5]) were 0.0037 mg/mL (≈ 6.68 µM) and 0.021 mg/mL (≈ 37.9 µM), respectively.

On to `Cc1cc(CN2CCS(=O)(=O)CC2)ccc1COc1ccccc1-c1csc(N2CCC(C(=O)O)CC2)n1` [Compound 272], for which the EC50 turned out to be 120 nM in series [1] and 110 nM in series [2]. For the same compound, the figures for the solubility in series [3] (setting [4]) and in series [3] (setting [5]) were 0.014 mg/mL (≈ 25.2 µM) and over 0.16 mg/mL, respectively.

Take `Cc1cc(CN2CCS(=O)(=O)CC2)ccc1COc1ccc(C#N)cc1-c1csc(N2CCC(C(=O)O)CC2)n1` [Compound 273]: the EC50 in series [1] amounted to 320 nM; in series [2], 570 nM. In addition, the results for the solubility in series [3] (setting [4]) and in series [3] (setting [5]) were 0.0073 mg/mL (≈ 12.6 µM) and over 0.082 mg/mL, respectively.

As for `Cc1cc(C(=O)N2CCCCC2)ccc1COc1ccc(C#N)cc1-c1csc(N2CCC(C(=O)O)CC2)n1` [Compound 274], the results for the EC50 in series [1] and in series [2] were 1600 nM and 600 nM, respectively. For the same compound, the solubility in series [3] (setting [4]) is 0.00095 mg/mL (≈ 1.74 µM); in series [3] (setting [5]), over 0.054 mg/mL.

As for `Cc1cc(CN2CCS(=O)(=O)CC2)ccc1COc1ccc(F)cc1-c1csc(N2CC3CCC(C2)C3C(=O)O)n1` (stereo not drawn) [Compound 275], the concentration giving a half-maximal response (EC50) in series [1] turned out to be 1800 nM; in series [2], 670 nM. For the same compound, the solubility in series [3] (setting [4]) stood at 0.0006 mg/mL (≈ 1 µM); in series [3] (setting [5]), 0.004 mg/mL (≈ 6.67 µM).

Consider `Cc1ccc(OCc2ccc(CN3CCOCC3)cc2OC(F)(F)F)c(-c2csc(N3CCC(C(=O)O)CC3)n2)c1` [Compound 277], for which the results for the EC50 in series [1] and in series [2] were 74 nM and 16 nM, respectively. The values for the solubility in series [3] (setting [4]) and in series [3] (setting [5]) were 0.021 mg/mL (≈ 35.5 µM) and 0.041 mg/mL (≈ 69.3 µM), respectively.

`Cc1ccc(OCc2ccc(CN3CCN4CCCC4C3)cc2C)c(-c2csc(N3CCC(C(=O)O)CC3)n2)c1` (stereo not drawn) [Compound 350]: the figures for the EC50 in series [1] and in series [2] were 260 nM and 170 nM, respectively. The solubility in series [3] (setting [4]) and in series [3] (setting [5]) was over 0.056 mg/mL throughout.

In the case of `Cc1ccc(OCc2ccc(CN3CCN(C(=O)C4CC4)CC3)cc2C#N)c(-c2csc(N3CCC(C(=O)O)CC3)n2)c1` [Compound 352], the EC50 came to 14 nM in series [1] and 76 nM in series [2]. Moreover, the results for the solubility in series [3] (setting [4]) and in series [3] (setting [5]) were 0.022 mg/mL (≈ 36.7 µM) and over 0.059 mg/mL, respectively.

On to `Cc1ccc(OCc2ccc(CN3CCC(F)CC3)cc2C)c(-c2csc(N3CCC(C(=O)O)CC3)n2)c1` [Compound 353], for which the concentration for a half-maximal effect (EC50) in series [1] was 470 nM; in series [2], 140 nM. The solubility was over 0.053 mg/mL in series [3] (setting [4]) and 0.038 mg/mL (≈ 70.7 µM) in series [3] (setting [5]).
